Test results as given in patent publication US20250381129A1, “ANTI-AGING SKIN CARE COMPOSITION” (L'OREAL, priority 2024, published 2025).

Assays:
Details in all cases: topical, 5 consecutive days, HPR 0.01%, LA 3%, Eperuline 1% or 3%
IL-1A = test: Quantification of secreted IL-1A in culture supernatant of CSC-stimulated human ex-vivo skin (ProcartaPlex/Luminex)
Protocol: (§1) Human ex-vivo skin was cultured with or without CSC and topically treated with either HPR, HPR-LA, HPR-Eperuline and HPR-LA-Eperuline for 5 days consecutive days (See FIG. 2B; See Table 4 for concentrations).
(§2) Skin tissues were divided into groups of three and placed in the 24-well transwell plates, […] (Cell stimulation cocktail 500×(50-930-5)) was diluted to a 2× concentration in culture media and 650 uL was added to the well on the first day. Topical treatments were undertaken daily by pipetting 5 uL of treatments onto the tissue and using a Q-tip, spreading treatments across the tissue and left to absorb at room temperature for 30 minutes. Base media without stimulants served as the control group. Tissues were replenished with fresh media with the stimulant on day 1 and 3. On days 1, 3 and 5, supernatant from the culture was collected and aliquoted, and the tissues were bisected and fixed in 10% neutral buffered formalin (Fisher Scientific 22-126-347) for 3 h and then switched to 70% ethanol for storage until histology.
(§3) Tissue culture supernatant was collected at the end of the cultures to evaluate the secretion of several cytokines, chemokines, and growth factors. […]
(§4) Data were assessed using a two-way ANOVA with multiple comparison test. […]

[1] = test system: CSC-stimulated human ex-vivo skin; test: H&E histological analysis of CSC-stimulated human ex-vivo skin
Protocol: as §1
Fresh human ex-vivo skin was obtained through donor informed consent following abdominoplasty procedures. The tissues were obtained through BioIVT (Westbury, NY, USA) following an approved IRB protocol and shipped to a BSC level 2 research laboratory within 24 h after the procedure where the experiments took place. All experiments were performed in accordance with relevant guidelines and regulations. Donors included a person, person and person. Ex vivo tissues were prepared by excising the subcutaneous fat followed by punch biopsies with disposable 12 mm Skin Biopsy Punch (Fisher Scientific, NC9253254) and placed in 24-well transwell plates with permeable polyester membrane inserts (Fisher Scientific, 07-200-161). At least three biopsies were used for each condition.
Skin tissues were divided into groups of three and placed in the 24-well transwell plates, […] (Cell stimulation cocktail 500×(50-930-5)) was diluted to a 2× concentration in culture media and 650 uL was added to the well on the first day. […]

IL-23 = test: Quantification of secreted IL-23 in culture supernatant of CSC-stimulated human ex-vivo skin (ProcartaPlex/Luminex)
Protocol: as §1, §2, §3, §4

CC1=C(/C=C/C(C)=C/C=C/C(C)=C/C(=O)OCC(=O)C(C)(C)C)C(C)(C)CCC1 [HPR, hydroxypinacolone retinoate]
secreted IL-1A (IL-1A): significant increase | histological signs of inflammation (epidermal spongiosis, immune infiltration) [1]: exacerbated | secreted IL-23 (IL-23): significant increase
